# Source: patent US10821115B2, “Compounds that inhibit Mcl-1 protein” (priority 2017, dated 2020)
# Like-named read-outs stand apart in the source and are kept apart here.
# How the values were obtained:
# [1] = test system: human multiple myeloma cell line, OPM-2; experiment: Cell viability assay (OPM-2 10 FBS), CellTiter-Glo; assay type: cell-based
# Outline: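 OPM-2 cells at 3000 cells/well in RPMI 1640 with 10% FBS were exposed to serially diluted compounds for 16 h at 37 °C, 5% CO2.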
# [2] = target: recombinant human Mcl-1 (residues 171-327) / Bim interaction (Homo sapiens (Human), UniProt Q07820); experiment: biochemical; assay type: binding; conditions: read-out: Mcl-1 HTRF IC50
# Chain of recombinant human Mcl-1 (residues 171-327) / Bim interaction (Q07820 171-327): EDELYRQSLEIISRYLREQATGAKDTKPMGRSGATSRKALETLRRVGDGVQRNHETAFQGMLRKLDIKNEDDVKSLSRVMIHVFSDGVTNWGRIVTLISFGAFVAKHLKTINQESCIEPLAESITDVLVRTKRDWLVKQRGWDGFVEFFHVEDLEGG
# [3] = Homo sapiens, OPM-2, 16 h, read-out: OPM-2 10% FBS IC50 IP, OPM-2 cells, 10% FBS, 16 h, CellTiter-Glo
# [4] = TR-FRET, Mcl-1(171-327) / biotin-Bim (51-76)
# [5] = Homo sapiens, OPM-2, 16 h, read-out: OPM-2 10% FBS IC50 IP, OPM-2 cells, 10% FBS, 16 h incubation
# [6] = 0.1 nM Mcl-1(171-327), 0.05 nM biotin-Bim (51-76)
# [7] = read-out: OPM-2 10% FBS IC50 IP, OPM-2 cells, 10% FBS, 16 h, CellTiter-Glo
Structure (SMILES),"IC50 [1, 3] [nM]","IC50 [2, 4] [nM]","IC50 [1, 5] [nM]","IC50 [2, 6] [nM]","IC50 [1, 7] [nM]"
"CO[C@@]1(CSC(C)C)/C=C/C[C@H](C)[C@@H](C)S(=O)(=O)NC(=O)c2ccc3c(c2)N(C[C@@H]2CC[C@H]21)C[C@@]1(CCCc2cc(Cl)ccc21)CO3 [Example 100441, (1S,3′R,6′R,7′S,8′E,11′S,12′R)-6-chloro-7′-methoxy-11′,12′-dimethyl-7′-((2-propanylsulfanyl)methyl)-3,4-dihydro-2H,15′H-spiro[naphthalene-1,22′-[20]oxa[13]thia[1,14]diazatetracyclo [14.7.2.0~3,6~.0~19,24~]pentacosa[8,16,18,24]tetraen]-15′-one 13′,13′-dioxide]",154,0.133,–,–,–
"CO[C@@]1([C@H](C)O)CCC[C@H](C)[C@@H](C)S(=O)(=O)NC(=O)c2ccc3c(c2)N(C[C@@H]2CC[C@H]21)C[C@@]1(CCCc2cc(Cl)ccc21)CO3 (single isomer, unassigned) [Example 100482]",105,0.183,–,–,–
"COCC[C@@H]1[C@@H](C)C/C=C/[C@](CN2CCN3CCCC[C@@H]3C2)(OC)[C@@H]2CC[C@H]2CN2C[C@@]3(CCCc4cc(Cl)ccc43)COc3ccc(cc32)C(=O)NS1(=O)=O [Example 182, (1S,3′R,6′R,7′S,8′E,11′S,12′R)-6-chloro-7′-methoxy-12′-(2-methoxyethyl)-11′-methyl-7′-((9aR)-octahydro-2H-pyrido[1,2-a]pyrazin-2-ylmethyl)-3,4-dihydro-2H,15′H-spiro[naphthalene-1,22′-[20]oxa[13]thia[1,14]diazatetracyclo [14.7.2.0~3,6~.0~19,24~]pentacosa[8,16,18,24]tetraen]-15′-one 13′,13′-dioxide]",–,–,88,0.171,–
"CCN(CC)C(=O)C[C@@]1(O)/C=C/C[C@H](C)[C@@H](C)S(=O)(=O)NC(=O)c2ccc3c(c2)N(C[C@@H]2CC[C@H]21)C[C@@]1(CCCc2cc(Cl)ccc21)CO3 (single isomer, unassigned) [Example 100084]",1490,0.745,–,–,–
"CO[C@@]1(CN2CCC23COC3)/C=C/C[C@H](C)[C@@H](C)S(=O)(=O)NC(=O)c2ccc3c(c2)N(C[C@@H]2CC[C@H]21)C[C@@]1(CCCc2cc(Cl)ccc21)CO3 [Example 208, (1S,3′R,6′R,7′S,8′E,11′S,12′R)-6-chloro-7′-methoxy-11′,12′-dimethyl-7′-(6-oxa-1-azaspiro[3.3]hept-1-ylmethyl)-3,4-dihydro-2H,15′H-spiro[naphthalene-1,22′-[20]oxa[13]thia[1,14]diazatetracyclo [14.7.2.0~3,6~.0~19,24~]pentacosa[8,16,18,24]tetraen]-15′-one 13′,13′-dioxide]",–,–,368,0.099,–
"C[C@@H]1[C@@H](C)CCC[C@@](O)([C@@H]2CCN(C)C2=O)[C@@H]2CC[C@H]2CN2C[C@@]3(CCCc4cc(Cl)ccc43)COc3ccc(cc32)C(=O)NS1(=O)=O [Example 100204, (1S,3′R,6′R,7′S,11′S,12′R)-6-chloro-7′-hydroxy-11′,12′-dimethyl-7′-((3S)-1-methyl-2-oxo-3-pyrrolidinyl)-3,4-dihydro-2H,15′H-spiro[naphthalene-1,22′-[20]oxa[13]thia[1,14]diazatetracyclo [14.7.2.0~3,6~.0~19,24~]pentacosa[16,18,24]trien]-15′-one 13′,13′-dioxide]",–,1.66,–,–,5270
"C[C@@H]1[C@@H](C)C/C=C/[C@@](CN2CCN3CCCC[C@@H]3C2)(OCC2CC2)[C@@H]2CC[C@H]2CN2C[C@@]3(CCCc4cc(Cl)ccc43)COc3ccc(cc32)C(=O)NS1(=O)=O [Example 155, (1S,3′R,6′R,7′R,8′E,11′S,12′R)-6-chloro-7′-(cyclopropylmethoxy)-11′,12′-dimethyl-7′-((9aR)-octahydro-2H-pyrido[1,2-a]pyrazin-2-ylmethyl)-3,4-dihydro-2H,15′H-spiro[naphthalene-1,22′-[20]oxa[13]thia[1,14]diazatetracyclo [14.7.2.0~3,6~.0~19,24~]pentacosa[8,16,18,24]tetraen]-15′-one 13′,13′-dioxide]",–,–,378,0.228,–
C[C@@H]1[C@@H](C)C/C=C/[C@](O)(c2cnccc2F)[C@@H]2CC[C@H]2CN2C[C@@]3(CCCc4cc(Cl)ccc43)COc3ccc(cc32)C(=O)NS1(=O)=O (stereo in doubt) [Example 100537],256,0.115,–,–,–
"CO[C@@]1(CC(=O)N(C)CC(F)(F)F)/C=C/C[C@H](C)[C@@H](C)S(=O)(=O)NC(=O)c2ccc3c(c2)N(C[C@@H]2CC[C@H]21)C[C@@]1(CCCc2cc(Cl)ccc21)CO3 [Example 100375, 2-((1S,3′R,6′R,7′S,8′E,11′S,12′R)-6-chloro-7′-methoxy-11′,12′-dimethyl-13′,13′-dioxido-15′-oxo-3,4-dihydro-2H-spiro[naphthalene-1,22′-[20]oxa[13]thia[1,14]diazatetracyclo [14.7.2.0~3,6~.0~19,24~]pentacosa[8,16,18,24]tetraen]-7′-yl)-N-methyl-N-(2,2,2-trifluoroethyl)acetamide]",176,0.07,–,–,–
"COc1ccc([C@@]2(O)/C=C/C[C@H](C)[C@@H](C)S(=O)(=O)NC(=O)c3ccc4c(c3)N(C[C@@H]3CC[C@H]32)C[C@@]2(CCCc3cc(Cl)ccc32)CO4)cn1 (single isomer, unassigned) [Example 100362]",2100,0.888,–,–,–
"C[C@@H]1[C@@H](C)CCC[C@@](O)(C#CCCN2CCOCC2)[C@@H]2CC[C@H]2CN2C[C@@]3(CCCc4cc(Cl)ccc43)COc3ccc(cc32)C(=O)NS1(=O)=O [Example 100371, (1S,3′R,6′R,7′S,11′S,12′R)-6-chloro-7′-hydroxy-11′,12′-dimethyl-7′-(4-(4-morpholinyl)-1-butyn-1-yl)-3,4-dihydro-2H,15′H-spiro[naphthalene-1,22′-[20]oxa[13]thia[1,14]diazatetracyclo [14.7.2.0~3,6~.0~19,24~]pentacosa[16,18,24]trien]-15′-one 13′,13′-dioxide]",–,0.39,–,–,307
"C[C@@H]1[C@@H](C)C/C=C/[C@]2(CN(CC3CCCCC3)CCO2)[C@@H]2CC[C@H]2CN2C[C@@]3(CCCc4cc(Cl)ccc43)COc3ccc(cc32)C(=O)NS1(=O)=O [Example 139, (1S,3′R,6′R,7′R,8′E,11′S,12′R)-6-chloro-4″- (cyclohexylmethyl)-11′,12′-dimethyl-3,4-dihydro-2H,15′H-dispiro[naphthalene-1,22′-[20]oxa[13]thia[1,14]diazatetracyclo [14.7.2.0~3,6~.0~19,24~]pentacosa[8,16,18,24]tetraene-7′,2″-[1,4]oxazinan]-15′-one 13′,13′-dioxide]",–,–,> 33300,32,–
"CO[C@]1(CN2CCN(C3COC3)CC2)/C=C/[C@H](C)[C@H](C)CS(=O)(=O)NC(=O)c2ccc3c(c2)N(C[C@@H]2CC[C@H]21)C[C@@]1(CCCc2cc(Cl)ccc21)CO3 [Example 159, (1S,3′R,6′R,7′R,8′E,10′S,11′S)-6-chloro-7′-methoxy-10′,11′-dimethyl-7′-((4-(3-oxetanyl)-1-piperazinyl)methyl)-3,4-dihydro-2H,15′H-spiro[naphthalene-1,22′-[20]oxa[13]thia[1,14]diazatetracyclo [14.7.2.0~3,6~.0~19,24~]pentacosa[8,16,18,24]tetraen]-15′-one 13′,13′-dioxide]",–,–,79,0.096,–
